Measurements as given in patent US9133260B2 (priority 2005, dated 2015).
Entries after “also recorded” stand apart in the source; their conditions may differ. Like-named read-outs stand apart in the source and are kept apart here. Ends that are not written are not given here.

How the values were obtained:
[1] = cited from earlier work; for EC(50) inhibition of gastric emptying: subcutaneous, conscious rats, rat weight ~200 g; for inhibition of gastric emptying, in words: at doses of 100 μg
[2] = assay type: in vivo, NIH/Swiss mice; details: for acute food intake, in words: IP at t=0, 30, 60, 120 min
Description: Peptide was injected IP at t=0.
Peptide was injected IP at t=0. […] Peptide was injected IP at t=0.

[3] = system: cardiomyocyte Gs-coupled receptors; experiment: cAMP production in isolated neonatal cardiomyocytes (HTRF); assay type: cell-based, rat
Description: Activation of cardiomyocyte Gs- and Gi-coupled receptors was determined as a measure of cAMP production.
Cell Isolation. Neonatal cardiomyocytes were isolated using a commercially available system. […] Sprague Dawley neonatal rats (1-2 days old) were decapitated and the beating heart dissected out into digestion buffer (Cellutron D1 buffer) to dissociate cells. […] The resuspended cells incubated in buffer (Cellutron D3 buffer) for sufficient time to allow optimal dispersion and minimize the need for pipetting to break up clumps. Cells released from the first 2 digestions were discarded since a significant portion of these is red blood cells. Resuspended cells were filtered and allowed to pre-plate for 1 hour on plastic in an incubator in NS media (Cellutron, NJ) in order to remove fibroblasts. After 1 hour of pre-plating, floating cells are removed and the flask rinsed with NS media. The floating cells and the cells in the rinse media were combined and counted. Residual red blood cells, which are smaller that the cardiac myocytes, were not counted.
Cell Plating. […] At Day 1, the NS media was replaced with fresh NS media.
cAMP Assay. […] Dose response was determined.
For Gs assays the positive control was 10 uM forskolin and negative control was buffer. For Gi assays the positive control was buffer and the negative control was 10 uM forskolin.

[4] = Basal glucose lowering in 2-hour fasted NIH/Swiss mice; assay type: in vivo; details: for basal glucose lowering (% maximal decrease): mouse, in vivo
Description: (§1) In FIG. 3A, bars represent mean±sd, n=6-10. Peptide was injected IP at t=−5 into overnight-fasted NIH/Swiss mice. Gavage (1.5 g/kg) was given at t=0. Sample was taken at t=30 min. […] In FIG. 3B, points represent mean±sem, n=8-15. Peptide was injected IP at t=0 immediately following baseline sample into 2-hour fasted NIH/Swiss mice. Samples were taken at t=60, 120, and 180 minutes. […] Compound G has both an N-terminal modification providing DPP-IV resitance and a C-terminal Trp-cage shield.
Points represent mean±sem. Peptide was injected IP at t=0 immediately following baseline sample into 2-hour fasted NIH/Swiss mice. Samples were taken at t=60, 120, 180 and 240 minutes.
FIGS. 8A and 8b provide a result of one such study. Points represent mean±sem. Peptide was injected IP at t=0 immediately following baseline sample into 2-hour fasted NIH/Swiss mice. Samples were taken at t=60, 120, 180 and 240 minutes.

[5] = Intravenous glucose tolerance test (IVGTT assay); assay type: in vivo, rats; details: 100 pmol/kg/min infusion; for insulinotropic response to an intravenous glucose challenge: anesthetized HSD male rats
Description: All three analogs produced a significant lowering of the glucose excursion in response to the glucose challenge (data not shown). As described, fed, isoflurane anesthetized HSD male rats were intubated and cannulated via femoral artery and vein and allowed to stabilize for 1 hour. […] At t=0, an i.v. bolus of 5.7 mmol/kg D-glucose was administered over 2 minutes. Samples for glucose measurement and insulin concentrations were taken at various time points before and after (0 to 90 minutes) glucose infusion.

[6] = Body weight in diet-induced-obesity (DIO) mice; assay type: in vivo, C57BL/6 mice; details: for body weight change in diet-induced-obese mice: infused via osmotic pump for 2 weeks
[7] = Oral glucose tolerance test (OGTT); assay type: in vivo, NIH/Swiss mice; details: decrease in the OGTT assay
Description: as §1
In FIG. 13B bars represent mean+/−sd. Peptide was injected IP at t=−5 minutes into 4-hour fasted NIH/Swiss female mice. Gavage (1.5 g/kg) was given at t=0. […] In FIG. 17 points represent mean+/−sem. Peptide was injected IP at t=) immediatley following baseline sample into 2-hour fasted NIH/Swiss mice. Samples were taken at t=60, t=120 and t=180. […] In one embodiment for each of these GIP hybrids a Gly linker is used, e.g. GlyGlyGly.

[8] = Glucose lowering in diabetic db/db mice; assay type: in vivo; details: IP; GIP at a 10 fold higher dose
Description: Peptide was injected IP at t=0 immediately following baseline sample into 2-hour fasted db/db mice.

[9] = Circulatory system effects in conscious rats by telemetry; assay type: in vivo; details: 80 nmol/kg intravenous
Description: The experiments were performed during the light cycle. Telemetry allows for real-time hemodynamic readings including arterial blood pressure, heart rate and arterial dP/dt, via an implanted radio transmitter in conscious, non-anesthetized, unrestrained rats. […] Remote intravenous dosing was achieved through in-dwelling vascular access ports (Access Technologies (Skokie, Ill.). The port is secured to the underlying muscle just below the skin between the scapulae. The catheter resides in the jugular vein. Data were collected for up to 60 minutes following injection.

relevant receptors = experiment: Cyclase, table of GIP/amylin-sCT hybrids; assay type: biochemical; details: receptor and unit inferred

For “CSNLSTCVLGKLSQELHKLQTYPRTNTGSGTP [Salmon calcitonin]”, the “EC(50) inhibition of gastric emptying” value [1] is listed as 0.19 µg.
In the case of DY(SO3) MGWMDF-NH2 [CCK-8], the “60 min ED50” value ([2]; mouse, in vivo) is given as 26 nmol/kg and the “EC(50) inhibition of gastric emptying” value [1] is given as 2.93 µg.
In the case of “Gastrin releasing peptide: gastrin releasing peptide (VPLPAGGGTVLTKMYPRGNHWAVGHLM-NH2; ends and bridges not checked; UniProt P07492 24-50, looked up)”, the “EC(50) inhibition of gastric emptying” value [1] is listed as 28.5 µg.
In the case of “HAEGTFTSDVSSYLEGQAAKEFIAWLVKGR-NH2 [GLP-1]”, the “cAMP activity in cardiomyocytes, in words” value [3] is listed as “very low to no significant activity” and the “EC(50) inhibition of gastric emptying” value [1] is listed as 1.82 µg.
With “HGEGAFTSDLSKQLEEEAVRLFIEFLKN-NH2 [Exendin-4 (1-28) [Ala5, Leu14, Phe25]]” the “60 min ED50” value ([2]; mouse food intake at 60 min) was 13 nmol/kg.
For “KCNTATCATQRLANFLVHSSNNFGAILSSTNVGSNTY [Human amylin]”, the “EC(50) inhibition of gastric emptying” value [1] is given as 0.15 µg.
In the case of “KCNTATCATQRLANFLVRSSNNLGPVLPPTNVGSNTY-NH2 [Rat Amylin]”, the “acute food intake, in words” value [2] is listed as “significant decrease in food intake within 30 min”, the “60 min ED50” value ([2]; mouse food intake at 60 min) is listed as 9 nmol/kg and the “EC(50) inhibition of gastric emptying” value [1] is listed as 0.18 µg.
For “PACAP38: pituitary adenylate cyclase activating peptide (PACAP38) (HSDGIFTDSYSRYRKQMAVKKYLAAVLGKRYKQRVKNK-NH2; ends and bridges not checked; UniProt P18509 132-169, looked up)”, the “inhibition of gastric emptying, in words” value [1] is given as “weakly active or inactive”.
For “Rat CGRP: rat calcitonin gene related peptide (SCNTATCVTHRLAGLLSRSGGVVKDNFVPTNVGSEAF; ends and bridges not checked; cysteine pairing not given here; UniProt P01256 83-119, looked up)”, the “EC(50) inhibition of gastric emptying” value [1] is listed as 1.62 µg.
In the case of “Rat calcitonin: rat calcitonin, peptide compared for inhibition of gastric emptying (CGNLSTCMLGTYTQDLNKFHTFPQTSIGVGAP; ends and bridges not checked; cysteine pairing not given here; UniProt P01257 85-116, looked up)”, the “EC(50) inhibition of gastric emptying” value [1] is listed as 0.64 µg.
In the case of Secretin: gut peptide hormone secretin, the “EC(50) inhibition of gastric emptying” value [1] is listed as 1.87 µg.
For “Y(D-Ala)EGTFISDYSIAMDKIHQQDFVNWLLAQKGKKNDWKHNITQ-OH [Compound 0601GIP4042]”, the “basal glucose lowering (% maximal decrease)” value [4] was −11% and the “insulinotropic response to an intravenous glucose challenge” value (“insulinotropic response” for short) [5] was “significant enhancement of the insulinotropic response”.
With “YAEGTFISDYSIAMDKIHQQDFVNWLLAQKGKKNDWKHNITQ-OH [GIP]” the “body weight change in diet-induced-obese mice” value [6] was “had no effect on body weight change”, the “acute food intake, in words” value [2] was “did not acutely inhibit food intake” and the OGTT response [7] was −10%. The “glucose lowering in diabetic db/db mice, in words” value [8] was “modest and wanes over time”, the “inhibition of gastric emptying, in words” value [1] was “weakly active or inactive” and the dP/dt [9] was “increased dP/dt similarly”. The heart rate [9] was “chronotropic (heart rate elevating) effect”, the mean arterial pressure [9] was “had no effect” and the “insulin levels prior to the glucose challenge” value [5] was “significant rise in insulin levels”. The “insulinotropic response” value [5] was “significant enhancement of the insulinotropic response”.
In the case of “YAEGTFISDYSIAMDKIHQQDFVNWLLAQKPSSGAPPPS [Compound 1]”, the EC50 (relevant receptors) is reported as 519 nM.
For “YaEGTFISDYSIAMDKIHQQDFVNWLLAQKPSSGAPPPS-NH2 [Compound 0601GIP3794]”, the EC50 ([3]; experiment of FIGS. 18A/18B, read-out: EC50, cAMP production in cardiomyocytes) was 11.7 nM, the EC50 ([3]; from three independent experiments, read-out: EC50, cardiomyocyte Gs-coupled receptor activation) was 29.8 nM and the “body weight change in diet-induced-obese mice” value [6] was “without a concomitant reduction in body weight”. For the same substance, the body composition ([6]; mouse, in vivo) was “slight decrease in percentage body fat with an increase in body protein”, the “acute food intake, in words” value [2] was “did not acutely inhibit food intake” and the OGTT response [7] was −21%. For the same substance, the “glucose lowering in normal NIH/Swiss mice, in words” value ([4]; IP, samples 60-240 min, listed as Compound G) was “significantly more efficacious than full length GIP; also recorded: gradually increasing activity that peaks at t=120 min”, the “basal glucose lowering (% maximal decrease)” value [4] was −20% and the “glucose lowering in diabetic db/db mice, in words” value [8] was “pronounced and long-acting effect in lowering glucose”. The dP/dt [9] was “increased dP/dt similarly”, the heart rate [9] was “transient relative to GIP” and the mean arterial pressure [9] was “decreased mean arterial pressure”. For the same substance, the “systolic and diastolic pressures” value [9] was “sustained lowering of systolic and diastolic pressures”, the “insulin levels prior to the glucose challenge” value [5] was “significant rise in insulin levels” and the “insulinotropic response” value [5] was “significant enhancement of the insulinotropic response”.
In the case of “adrenomedullin: amylin family peptide hormone adrenomedullin (YRQSMNNFQGLRSFGCRFGTCTVQKLAHQIYQFTDKDKDNVAPRSKISPQGY; ends and bridges not checked; cysteine pairing not given here; UniProt P35318 95-146, looked up)”, the “inhibition of gastric emptying, in words” value [1] is given as “weakly active or inactive”.
For glucagon: peptide hormone glucagon, the “inhibition of gastric emptying, in words” value [1] is listed as “weakly active or inactive”.
For “insulin: insulin (tested with plasma glucose maintained constant)”, the “inhibition of gastric emptying, in words” value [1] is given as “weakly active or inactive”.
In the case of neuropeptide Y: neuropeptide Y, the “inhibition of gastric emptying, in words” value [1] is listed as “weakly active or inactive”.
For “vasoactive intestinal peptide: vasoactive intestinal peptide (VIP) (HSDAVFTDNYTRLRKQMAVKKYLNSILN; ends and bridges not checked; UniProt P01282 125-152, looked up)”, the “inhibition of gastric emptying, in words” value [1] is given as “weakly active or inactive”.
